For assay [1], the system named is MDH2774. The experiment in a line: cells. To be noted: Homo sapiens, MDAH 2774, 48 h. Further details: MTT cell viability assay, absorbance at 575 nm, MDAH 2774 cells. As to the method:
(§1) The cell viability effects of 12 candidate compounds were evaluated by MTT assay and compared against a control group (medium containing 0.1% DMSO). The cells were seeded in 96-well plates and pre-cultured for 24 h (1 × 10^5 cells/well). The cells were then incubated for 48 h with the 12 identified compounds (at 0, 3.125, 6.25, 12.5, 25, 50, or 100 µM) dissolved in 0.1% DMSO. After 48 h, MTT solution (2.5 mg/mL in DMEM) was added to the cells and incubated for 1 h. DMSO was added to dissolve the purple crystals, and the absorbance values were measured at 575 nm using a spectrophotometer (SPECTROstar Nano; BMG LABTECH, Offenburg, Germany). Each treatment group has four biological replicates (n = 4). The IC50 values for each compound in each cell line were obtained using the results of the MTT assay and calculated using the GraphPad Prism 6 program (GraphPad Software, Inc., San Diego, CA, USA). A CI higher than 1.0 indicates an antagonistic effect, a CI equal to 1.0 indicates an additive effect, and a CI lower than 1.0 indicates a synergistic effect.

The test system of assay [2] is SKOV3. The experiment in a line: cells. Further details: MTT cell viability assay, absorbance at 575 nm, SK-OV-3 cells. The note with it: Homo sapiens, SK-OV-3, 48 h. As to the method:
as §1

Assay [3] concerns OVCAR3. The experiment in a line: cells. To be noted: Homo sapiens, OVCAR-3, 48 h. More on the design: MTT cell viability assay, absorbance at 575 nm, OVCAR-3 cells. As to the method: as §1
Assay [4] concerns ES2. As to the kind of experiment: cells. Further details: MTT cell viability assay, absorbance at 575 nm, ES-2 cells. To be noted: Homo sapiens, ES-2, 48 h. As to the method: as §1
The target in assay [5] is T1, Aurora A kinase (Aurora A) (Homo sapiens, UniProt O14965).
T1 construct: gene AURKA
T1 sequence (O14965 1-403): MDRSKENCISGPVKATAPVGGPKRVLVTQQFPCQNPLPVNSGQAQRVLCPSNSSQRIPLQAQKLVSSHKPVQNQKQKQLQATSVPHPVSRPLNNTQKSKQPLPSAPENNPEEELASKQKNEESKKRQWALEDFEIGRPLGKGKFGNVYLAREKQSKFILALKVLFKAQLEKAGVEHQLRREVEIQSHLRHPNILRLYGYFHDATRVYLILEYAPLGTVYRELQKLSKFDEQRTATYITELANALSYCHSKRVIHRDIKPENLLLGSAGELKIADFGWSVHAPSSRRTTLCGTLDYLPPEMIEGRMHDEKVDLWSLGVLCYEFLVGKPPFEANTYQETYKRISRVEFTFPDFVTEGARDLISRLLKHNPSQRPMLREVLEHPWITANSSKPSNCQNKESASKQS
As to the kind of experiment: in vitro Aurora A kinase assay kit (Promega V1931, luminescence), dose-dependent at […]; supported by CETSA in MDAH […] and OVCAR-3 cells. It counts as biochemical.

We go through eleven compounds from article PMC8836832, “Novel Aurora A Kinase Inhibitor Fangchinoline Enhances Cisplatin–DNA Adducts and Cisplatin Therapeutic Efficacy in OVCAR-3 Ovarian Cancer Cells-Derived Xenograft Model” (International Journal of Molecular Sciences, 2022).

Where a name gives a salt, the structure may show the parent alone. A value given as a limit tells only on which side of the number the result lay.

The term IC50 denotes the point on the concentration scale where inhibition reaches its midpoint. Consider `O=c1cc(-c2ccc(O)c(-c3c(O)cc(O)c4c(=O)cc(-c5ccc(O)cc5)oc34)c2)oc2cc(O)cc(O)c12` [Amentoflavone], for which the IC50 in assay [1] was determined as 99.32 ± 0.03 µM; in assay [2], 78.9 ± 0.8 µM.
In the case of `COc1ccc2cc3[n+](cc2c1OC)CCc1cc2c(cc1-3)OCO2` [Berberine], the IC50 in assay [1] was determined as 12.8 ± 1.24 µM; in assay [2] it was 39.38 ± 0.02 µM; in assay [3], 20.56 ± 0.021 µM; in assay [4], 87.6 ± 0.02 µM.
On the same counts, the results for `O=C(/C=C/c1ccc(O)cc1)CC(=O)/C=C/c1ccc(O)cc1` [Bisdemethoxycurcumin] are 26 ± 0.53 µM, 25.1 ± 1.9 µM, 24.9 ± 0.74 µM and 45.5 ± 0.5 µM.
In the case of `C/C=C(\C)C(=O)N[C@@H](c1ccccc1)[C@@H](O)C(=O)O[C@H]1C[C@@]2(O)[C@@H](OC(=O)c3ccccc3)[C@@H]3[C@]4(OC(C)=O)CO[C@@H]4C[C@H](O)[C@@]3(C)C(=O)[C@H](OC(C)=O)C(=C1C)C2(C)C` [Cephalomannine], the values for the IC50 in assay [1], in assay [2] and in assay [3] were 41.72 ± 0.01 µM, 10.79 ± 0.01 µM and 41.78 ± 0.013 µM, respectively.
On to `CC(=O)O[C@@]12CO[C@@H]1C[C@H](O)[C@@]1(C)C(=O)[C@H](O)C3=C(C)[C@@H](OC(=O)[C@H](O)[C@@H](NC(=O)OC(C)(C)C)c4ccccc4)C[C@@](O)([C@@H](OC(=O)c4ccccc4)[C@H]21)C3(C)C` [Docetaxel], for which the IC50 in assay [1] was found to be 24.55 ± 0.011 µM; in assay [2] it was 21.48 ± 0.01 µM; in assay [3], 40.59 ± 0.015 µM; in assay [4], 50.38 ± 0.25 µM.
Consider `Cc1cc(O)c2c(c1)C(=O)c1cc(O)cc(O)c1C2=O` [Emodin], for which the IC50 is 34.32 ± 0.021 µM in assay [1], 34.7 ± 0.02 µM in assay [2], 22.64 ± 0.03 µM in assay [3] and 50.2 ± 2.09 µM in assay [4].
With `O=C(/C=C/c1ccc(O)cc1)c1ccc(O)cc1O` [Isoliquiritigenin], the IC50 was determined as 50.36 ± 0.48 µM in assay [1], 26 ± 0.44 µM in assay [2], 25.8 ± 1.21 µM in assay [3] and 51.46 ± 0.32 µM in assay [4].
`COc1cc2c(cc1OC)-c1cc3ccc(OC)c(OC)c3c[n+]1CC2` [Palmatine hydrochloride]: the IC50 is 51.29 ± 0.34 µM in assay [1] and 59.33 ± 0.02 µM in assay [2].
`CN1CCc2cc3c(cc2C(=O)Cc2cc4c(cc2C1)OCO4)OCO3` [Protopine]: the IC50 in assay [2] is 26.1 ± 0.49 µM; in assay [3], 25.4 ± 0.68 µM.
For the compound `O=C(O)c1cc(O)c2c(c1)[C@@H]([C@H]1c3cc(C(=O)O)cc(O)c3C(=O)c3c(O[C@@H]4O[C@H](CO)[C@@H](O)[C@H](O)[C@H]4O)cccc31)c1cccc(O[C@@H]3O[C@H](CO)[C@@H](O)[C@H](O)[C@H]3O)c1C2=O` [Sennoside B], the half-maximal inhibitory concentration (IC50) in assay [2] is > 100 µM.
Turning to `COc1ccc2cc1Oc1ccc(cc1)C[C@H]1c3cc(c(OC)cc3CCN1C)Oc1c(O)c(OC)cc3c1[C@H](C2)N(C)CC3` [fangchinoline], the IC50 in assay [1] was 8.71 ± 0.24 µM; in assay [2], 11.7 ± 1.2 µM; in assay [3], 9.66 ± 0.3 µM; in assay [4] it was 25.1 ± 0.65 µM. Also, the “in vitro Aurora A kinase assay kit (Promega V1931, luminescence), dose-dependent” value in assay [5] was “Figure 2C shows that fangchinoline treatment significantly decreased Aurora A enzymatic activity in a dose-dependent manner”.
